pKi: −log10 of the molar value.

FKBP12, sequence (P62942 whole entry, species assumed): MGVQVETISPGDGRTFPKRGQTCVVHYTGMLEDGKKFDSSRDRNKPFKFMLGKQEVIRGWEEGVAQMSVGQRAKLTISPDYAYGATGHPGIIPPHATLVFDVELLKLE

The first assay deals with FKBP12 (Homo sapiens, UniProt P62942). As to the kind of experiment: Ki test procedure: inhibition of peptidyl-prolyl isomerase (rotamase) activity, chymotrypsin-coupled assay. In kind it is biochemical. Conditions: FKBP rotamase, substrate N-succinyl-Ala-Ala-Pro-Phe-p-nitroanilide; read-out: Ki (apparent Ki, rotamase inhibition). The source says:
The inhibition of the prolyl peptidyl cis-trans isomerase activity of FKBP may be measured as an indicator of this affinity.
Inhibition of the peptidyl-prolyl isomerase (rotamase) activity of the compounds used in the inventive methods and pharmaceutical compositions can be evaluated by known methods described in the literature (Harding et al., Nature, 1989, 341:758-760; Holt et al. J. Am. Chem. Soc., 115:9923-9938).
The cis-trans isomerization of an alanine-proline bond in a model substrate, N-succinyl-Ala—Ala—Pro—Phe- p-nitroanilide, is monitored spectrophotometrically in a chymotrypsin-coupled assay, which releases para-nitroanilide from the trans form of the substrate. The inhibition of this reaction caused by the addition of different concentrations of inhibitor is determined, and the data is analyzed as a change in first-order rate constant as a function of inhibitor concentration to yield the apparent Ki values.
In a plastic cuvette are added […] of ice cold assay buffer (25 mM HEPES, pH 7.8, 100 mM NaCl), […] of FKBP (2.5 mM in 10 mM Tris-Cl pH 7.5, 100 mM NaCl, 1 mM dithiothreitol), […] of chymotrypsin (50 mg/ml in 1 mM HCl) and […] of test compound at various concentrations in dimethyl sulfoxide. The reaction is initiated by the addition of 5 mL of substrate (succinyl-Ala—Phe—Pro—Phe-para-nitroanilide, 5 mg/mL in 2.35 mM LiCl in trifluoroethanol).
The absorbance at 390 nm versus time is monitored for 90 seconds using a spectrophotometer and the rate constants are determined from the absorbance versus time data files.
Consider `O=C(C(=O)N1CCCCC1C(=O)OCc1ccccc1)c1ccco1` (centres unmarked) [Compound 20], for which the pKi was 5.52. The same measure, in the same setting: the figure for `COc1cc(C(=O)C(=O)N2CCCCC2C(=O)OCCCCc2ccccc2)cc(OC)c1OC` (centres unmarked) [Compound 23] is 7.72; for `O=C(C(=O)N1CCCCC1C(=O)OCc1ccccc1)c1ccccc1` (centres unmarked) [Compound 10] it is 5.82; for `O=C(C(=O)N1CCCCC1C(=O)OCCCCc1ccccc1)c1ccccc1` (centres unmarked) [Compound 13] it is 6.46. Consider `O=C(C(=O)N1CCCCC1C(=O)OCCCCC1CCCCC1)c1ccccc1` (centres unmarked) [Compound 15], for which the pKi is 6.40. As to `COC(=O)C(=O)N1CCCCC1C(=O)OCc1ccccc1` (centres unmarked) [Compound 16], the pKi is 4.10. For `O=C(C(=O)N1CCCCC1C(=O)OCCc1ccccc1)c1ccccc1` (centres unmarked) [Compound 14], the pKi is 5.96.

The next assay deals with hair growth.
Experiment: not given
Conditions: topical, but not oral, application; cited from earlier work.
`C=CC[C@@H]1/C=C(\C)C[C@H](C)C[C@H](OC)[C@H]2O[C@@](O)(C(=O)C(=O)N3CCCC[C@H]3C(=O)O[C@H](/C(C)=C/[C@@H]3CC[C@@H](O)[C@H](OC)C3)[C@H](C)[C@@H](O)CC1=O)[C@H](C)C[C@@H]2OC` [FK506]: the “stimulation of hair growth (in words)” value is listed as “stimulates hair growth in a dose-dependent manner”.

By pKi is commonly meant −log10 of the Ki, conventionally taken in molar units.

The values above are taken from patent US20010036952A1, “Small molecule pipecolic acid derivative hair growth compositions and uses” (GPI NIL Holdings, Inc., priority 1997, published 2001).
